Source: US11072584B2, “Carbon monoxide releasing norbornenone compounds” (OTAGO INNOVATION LIMITED, priority 2015, dated 2021)
Where a name gives a salt, the structure may show the parent alone. Read-outs that look alike come from different tables or passages of the source. One block for each compound: values may come before it.

Key:
horse heart myoglobin = experiment: carboxymyoglobin spectrophotometric assay (CO binding to myoglobin); type: biochemical; settings: 25 to 400 μM; 5 to 90 minutes
Experimental: CO released from oCOm-19 and oCOm-21 was measured using an established carboxymyoglobin spectrophotometric assay,^39 adapted to a 96 well plate format to enable the simultaneous correction at all absorbance wavelengths arising from any potential interference from the donor compounds.^40 Freshly prepared horse heart myoglobin (66 μM) in a PBS solution (pH 7.4) was reduced with 10% w/v sodium dithionite and added to a 96 well plate. […] Absorption spectra (λ 500-600 nm) were run at ten minute intervals using a Spectramax 96-well spectrophotometer (Molecular Devices, Crawley, UK) at 37° C. CO gas saturated PBS (714 μM), was employed as a positive control.

[1] = carboxyhaemoglobin in rats exposed to CO gas (earlier unpublished studies); type: in vivo; settings: 20 ppm CO gas
MDA-MB-231 = experiment: crystal violet cell viability assay; type: cell-based; settings: for EC50: Homo sapiens; for cellular toxicity (in words): MDA-MB-231 cells
Experimental: The loss of cell adhesion for anchorage-dependent cell lines, such as MDCK, represents a surrogate marker of imminent cellular demise which can be measured by the crystal violet cell adhesion (CVCA) assay.^42 MDCK cells were grown in DMEM supplemented with 4% donor calf serum and 1% antibiotic (Gibco Life Technologies, Auckland NZ) and plated at 1×10^6 cells/mL in 24 well plates. CO donor compounds, CO expired compounds (left in solution for over 48 hours) or non CO releasing, debromo derivatives were dissolved in either ultrapure water or for non-water soluble compounds, in DMSO and diluted to 20-100 μM (to a final concentration of 1% DMSO where appropriate). Cells were exposed to CO donor compounds or the respective vehicle control solution for 1 hour at 37° C. prior to washing and incubating for a further 23 hours in fresh media. Cells were fixed in 96% ethanol and stained in 0.05% crystal violet solution in 20% ethanol, prior to washing and solubilising (24 hours) in 2 mL 0.1% acetic acid in 50% ethanol. Sample solutes (100 μL) from each well were transferred into a 96 well plate and absorbance measured at 585 nm. Cell survival was reported as a percentage of the value obtained for cells exposed to vehicle only and used to plot a concentration-response curve for each compound from which an EC50 value was obtained.
Toxicity was reported as EC50 values calculated from percentage cell survival using Origin Pro8 software (OriginLab, MA, USA).

[2] = tested on: isolated rat aortic rings; experiment: isolated rat aortic ring vasorelaxation; parameters: species or system Lewis rats; settings: rings pre-contracted with phenylephrine; 37° C.
Experimental: Transverse ring sections of aorta were isolated from male Lewis rats ([…], n=5-6 per group) under halothane anaesthesia and suspended under 2 g tension in an organ bath containing 10 mL of oxygenated (95% O2/5% CO2) Krebs Henseleit (KH) buffer containing 118 mM NaCl, 4.7 mM KCl, 1.2 mM KH2PO4, 1.2 mM MgSO4.7H2O, 22 mM NaHCO3, 11 mM glucose, 0.03 mM K^+ EDTA, and 2.5 mM CaCl2 as previously described.^43 Indomethacin (10 μM) was present in the buffer to exclude endogenous prostaglandins as potential modulators of vascular tone. Relaxation responses to oCOm-19 or oCOm-21 ([…]) were assessed using individual dosing in tissues pre-contracted with phenylephrine (0.1 μM). All results were subsequently expressed as a percentage of the maximal phenylephrine-induced contraction. Following repeat wash steps with Krebs Henseleit buffer, smooth muscle function and viability was confirmed by repeating the contractile response to phenylephrine. Aortic responses to individual EC50 concentrations of either CO donor in phenylephrine vasoconstricted rings were repeated separately, in the presence of the CO-chelator, myoglobin (5 μM) and the selective, irreversible inhibitor of sGC 1H-(1,2,4)oxadiazolo[4,3-a]quinoxalin-1-one, (ODQ, 10 μM), as previously described.^44

MDCK cells = experiment: crystal violet cell adhesion (CVCA) cell toxicity assay; settings: Canis lupus familiaris, MDCK
Solubility in water = type: physicochemical; settings: water or physiological buffers
[3] = *MDA-MB-231 cells, 1 hr exposure at 37° C., viability after 23 hrs, read-out: EC50 (μM), Active Compound
[4] = * (MDA-MB-231), inactive CO depleted analogues, 37° C., read-out: EC50 (μM), Inactive Compound
[5] = read-out: EC50 (μM), Active Compound

Compound: [C-]#[O+].[C-]#[O+].[C-]#[O+].[C-]#[O+].[C-]#[O+].[C-]#[O+].[Cl][Ru][Cl].[Cl][Ru][Cl] [CORM2, Tri-carbonyldichlororuthenium (II) dimer, reference compound]
- carbonmonoxymyoglobin formation (in words) (horse heart myoglobin): characteristic shift in the absorbance maxima of myoglobin

Compound: [C-]#[O+] [CO gas, carbon monoxide]
- carboxyhaemoglobin level ([1]; 2 day duration): 1.1±0.25%
- carboxyhaemoglobin level ([1]; 7 day duration): 2±0.75%

Compound: CC12C(=O)C(C)(C(c3ccccc3)=C1c1ccccc1)C1(Br)C(=O)N(c3ccccc3)C(=O)C21 (centres unmarked) [oCOm-1, 3a-Bromo-3a,4,7,7a-tetrahydro-4,7-dimethyl-2,5,6-triphenyl-4,7-methano-1H-isoindole-1,3,8(2H)-trione]
- EC50 (MDA-MB-231; [3]): 4.6 µM
- cellular toxicity (in words) (MDA-MB-231): greatest toxicity

Compound: Cc1c2c(c(C)c(-c3ccccc3)c1-c1ccccc1)C(=O)N(CCC(=O)NCCN)C2=O.Cl [BP-19, N-(2-aminoethyl)-3-(4,7-dimethyl-1,3-dioxo-5,6-diphenylisoindolin-2-yl)propanamide Hydrochloride]
- vasorelaxant response (in words) [2]: no vasorelaxant effect
- EC50 (MDCK cells; read-out: EC50 (μM), Inactive Compound): > 100 µM

Compound: CC12C(=O)C(C)(C(c3ccccc3)=C1c1ccccc1)C1(Br)C(=O)N(c3ccc(O)cc3)C(=O)C21 (centres unmarked) [oCOm-8, 3a-Bromo-3a,4,7,7a-tetrahydro-4,7-dimethyl-2-(4-hydroxyphenyl)-5,6-diphenyl-4,7-methano-1H-isoindole-1,3,8(2H)-trione]
- EC50 (MDA-MB-231; [3]): 23.1 µM

Compound: COC(=O)[C@@H](N)CCCCN1C(=O)C2C3(C)C(=O)C(C)(C(c4ccccc4)=C3c3ccccc3)C2(Br)C1=O (stereo partly drawn) [oCOm-30, Methyl (2S)-2-amino-6-(3a-bromo-4,7-dimethyl-1,3,8-trioxo-5,6-diphenyl-1,3,3a,4,7,7a-hexahydro-2H-4,7-methanoisoindol-2-yl)hexanoate Trifluoroacetic Acid Salt]
- EC50 (MDCK cells; [5]): > 100 µM
- solubility (in words) (Solubility in water): water soluble

Compound: CC12C(=O)C(C)(C(c3ccccc3)=C1c1ccccc1)C1(Br)C(=O)N(CCC(=O)ON3C(=O)CCC3=O)C(=O)C21 (centres unmarked) [oCOm-17, 2,5-Dioxopyrrolidin-1-yl 3-(3a-bromo-4,7-dimethyl-1,3,8-trioxo-5,6-diphenyl-1,3,3a,4,7,7a-hexahydro-2H-4,7-methanoisoindol-2-yl)propanoate]
- EC50 (MDA-MB-231; [3]): 216 µM
- cellular toxicity (in words) (MDA-MB-231): least toxic
- solubility (in words) (Solubility in water): lack of solubility in water

Compound: CCOC(=O)[C@@H](N)CCCCN1C(=O)C2C3(C)C(=O)C(C)(C(c4ccccc4)=C3c3ccccc3)C2(Br)C1=O (stereo partly drawn) [oCOm-32, Ethyl (2S)-2-amino-6-(3a-bromo-4,7-dimethyl-1,3,8-trioxo-5,6-diphenyl-1,3,3a,4,7,7a-hexahydro-2H-4,7-methanoisoindol-2-yl)hexanoate Trifluoroacetic Acid Salt]
- EC50 (MDCK cells; [5]): > 100 µM
- solubility (in words) (Solubility in water): water soluble

Compound: COCCOCCOCCOc1ccc(C2=C(c3ccc(OCCOCCOCCOC)cc3)C3(C)C(=O)C2(C)C2C(=O)N(c4ccc(OCCOCCOCCOC)cc4)C(=O)C23Br)cc1 (centres unmarked) [oCOm-15, 3a-Bromo-3a,4,7,7a-tetrahydro-4,7-dimethyl-2,5,6-tri-(4-(2-(2-(2-methoxyethoxy)ethoxy)ethoxy)phenyl)-4,7-methano-1H-isoindole-1,3,8(2H)-trione]
- EC50 (MDA-MB-231; [3]): 183 µM

Compound: CCCOC(=O)[C@@H](N)CCCCN1C(=O)C2C3(C)C(=O)C(C)(C(c4ccccc4)=C3c3ccccc3)C2(Br)C1=O (stereo partly drawn) [oCOm-34, nPropyl (2S)-2-amino-6-(3a-bromo-4,7-dimethyl-1,3,8-trioxo-5,6-diphenyl-1,3,3a,4,7,7a-hexahydro-2H-4,7-methanoisoindol-2-yl)hexanoate Trifluoroacetic Acid Salt]
- EC50 (MDCK cells; [5]): > 100 µM
- solubility (in words) (Solubility in water): water soluble

Compound: COC(=O)[C@@H](N)CCCN1C(=O)C2C3(C)C(=O)C(C)(C(c4ccccc4)=C3c3ccccc3)C2(Br)C1=O (stereo partly drawn) [oCOm-40, Methyl (2S) 2-amino-5-(3a-bromo-4,7-dimethyl-1,3,8-trioxo-5,6-diphenyl-1,3,3a,4,7,7a-hexahydro-2H-4,7-methanoisoindol-2-yl)-pentanoate Trifluoroacetic Acid Salt]
- EC50 (MDCK cells; [5]): > 100 µM
- solubility (in words) (Solubility in water): water soluble

Continued, values first:

- EC50 (MDA-MB-231; [4]): > 200 µM
- melting point: 260 °C
Compound: Cc1c2c(c(C)c(-c3ccccc3)c1-c1ccccc1)C(=O)N(c1ccccc1)C2=O [BP-1, 4,7-Dimethyl-2,5,6-triphenyl-1H-isoindole-1,3(2H)-dione]

- EC50 (MDA-MB-231; [4]): 159 µM
Compound: Cc1c2c(c(C)c(-c3ccccc3)c1-c1ccccc1)C(=O)N(CCC(=O)ON1C(=O)CCC1=O)C2=O [BP-17, 2,5-Dioxo-1-pyrrolidinyl 4,7-dimethyl-5,6-diphenyl-1H-isoindole-1,3(2H)-dione-2-propanoate]

- EC50 (MDA-MB-231; [4]): 196 µM
- melting point: 127 to 129 °C
Compound: COCCOCCOCCOc1ccc(N2C(=O)c3c(C)c(-c4ccccc4)c(-c4ccccc4)c(C)c3C2=O)cc1 [BP-12, 2-(4-(2-(2-(2-Methoxyethoxy)ethoxy)ethoxy)phenyl)-4,7-dimethyl-5,6-diphenyl-1H-isoindole-1,3(2H)-dione]

- EC50 (MDA-MB-231; [4]): > 200 µM
Compound: COCCOCCOCCOc1ccc(-c2c(C)c3c(c(C)c2-c2ccc(OCCOCCOCCOC)cc2)C(=O)N(c2ccc(OCCOCCOCCOC)cc2)C3=O)cc1 [BP-15, 2,5,6-Tri-(4-(2-(2-(2-methoxyethoxy)ethoxy)ethoxy)phenyl)-4,7-dimethyl-1H-isoindole-1,3(2H)-dione]
